Results on 10 compounds are retold here after US20080176857A1, “4-Piperazinnylthieno[2,3-d]Pyrimidine Compounds as Platelet Aggregation Inhibitors” (priority 2005, published 2008).

This test concerns the target P2Y12 receptor (Homo sapiens, UniProt Q9H244). The test can be described thus: [33P]-2MeS-ADP binding to recombinant human P2Y12 membranes (Assay 3). Also on record: expressed in transfected cells; host or cells: HEK cells. The settings on record: for pIC50 / pKi: HEK cell membranes expressing human P2Y12, competition with 33P 2MeS-ADP; for inhibition at 10 µM / % Inhibition: 10 μM. On the procedure:
3. Human P2Y12 Recombinant Cell Membrane Binding Assay with ^33P 2MeS-ADP.
The ability of a test compound to bind to the P2Y12 receptor was evaluated in a recombinant cell membrane binding assay. In this competitive binding assay, the test compound competed against a radiolabelled agonist for binding to the P2Y12 receptor, expressed on the cell membrane. Inhibition of binding of the labeled material was measured and correlated to the amount and potency of the test compound. Data from this assay are presented in Table F. This binding assay is a modification of the procedure in Takasaki, J. et. al, Mol. Pharmacol., 2001, Vol. 60, pg. 432.
HEK cells were transfected with the pDONR201P2Y12 vector and cultured in MEM with GlutaMAX I, Earle's salts, 25 mM HEPES (Gibco # 42360-032) containing 10% dialyzed FBS (Gibco # 26400-044), 100 μM nonessential amino acids (Gibco # 11140-050), 1 mM sodium pyruvate (Gibco # 11360-070), 0.05% geneticin (Gibco #10131-027), 3 μg/mL blasticidin (Fluka brand from Sigma # 15205), and 0.5 μg/mL puromycin (Sigma # P-8833).
Confluent cells were washed once with cold DPBS (Gibco # 14190-136). Fresh DPBS was added and the cells were scraped and centrifuged at 500×g for 5 minutes at 4° C. The cell pellets were resuspended in TEE buffer (25 mM Tris, 5 mM EDTA, 5 mM EGTA) containing 1 protease inhibitor cocktail tablet (Roche # 1 873 580) per 50 mL (called TEE+Complete) and can be flash frozen at this point.
In one embodiment, frozen cell pellets were used to prepare the membranes. In that embodiment, the frozen cell pellets were thawed on ice. In another embodiment, cell pellets may be used without flash freezing before moving on to the next step.
Cell pellets were resuspended in TEE buffer+Complete and homogenized in a glass dounce for 12 strokes. The cell suspension was centrifuged at 500×g for 5 minutes at 4° C. The supernatant was saved and centrifuged at 20,000×g for 20 minutes at 4° C. This supernatant was discarded and the cell pellet resuspended in TEE buffer+Complete and homogenized in a glass dounce for 12 strokes. This suspension was centrifuged at 20,000×g for 20 minutes at 4° C. and the supernatant discarded. The pellet was resuspended in assay buffer (50 mM Tris, 100 mM NaCl, 1 mM EDTA) containing one protease inhibitor cocktail tablet per 50 mL, and can be flash frozen as 1 mL aliquots at this point.
Dry compounds were diluted as 10 mM DMSO stocks and tested in a seven-point, three-fold dilution series run in triplicate beginning at 10 μM, final concentration. A 1 mM DMSO intermediate stock was made in a dilution plate and from this the seven dilutions were made to 5× the final concentration in assay buffer containing 0.02% BSA.
The plates were incubated at room temperature for 1 hour. The reaction was stopped using a cell harvester to transfer the reaction mixture onto GF/B UniFilter plates (Perkin Elmer # 6005177), and washed three times with wash buffer (50 mM Tris), filtering between each wash. The filter plates were dried for approximately 20 minutes in an oven at 50° C. Back seals were adhered to the filter plates and 25 uL of Microscint 20 scintillation fluid (Perkin Elmer # 6013621) were added. The filter plates were sealed, shaken for 30 minutes, and counted on a Top Count. Data were analyzed using a four-parameter curve fit with a fixed minimum and maximum experimentally defined as the average positive and negative controls on each plate, and with a hill slope equal to one.
The table below presents the IC50, Ki, and percent inhibition values for compounds tested in either washed human platelets membrane binding assay (assay #1 above) or recombinant cell membrane binding assay (Assay #3, above). Example number refers to the compound prepared as described in the example noted in the section Working Examples, above. The highest concentration of candidate compound tested is listed for each experimental run presented. […]

[1] abbreviates: at highest concentration tested.

Structures are written as SMILES. pIC50, pKi: −log10 of the molar value. Where “and” joins values, the source holds several entries; their conditions need not be identical. Equal values may be shown once.

Chain of P2Y12 receptor (Q9H244 whole entry): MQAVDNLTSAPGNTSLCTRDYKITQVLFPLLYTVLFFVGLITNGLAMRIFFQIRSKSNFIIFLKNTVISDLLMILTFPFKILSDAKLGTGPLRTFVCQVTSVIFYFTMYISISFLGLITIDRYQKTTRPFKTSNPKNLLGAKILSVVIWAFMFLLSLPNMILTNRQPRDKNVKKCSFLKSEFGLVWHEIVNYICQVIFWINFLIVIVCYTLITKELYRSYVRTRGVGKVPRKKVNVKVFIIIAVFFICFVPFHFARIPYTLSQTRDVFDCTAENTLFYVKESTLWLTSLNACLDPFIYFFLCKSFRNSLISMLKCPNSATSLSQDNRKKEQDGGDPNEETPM

`CCc1cc2c(N3CCN(C(=O)c4ccc(-n5cccn5)cc4)CC3)nc(SCC(=O)OC)nc2s1` [Example 48, Methyl [(6-ethyl-4-{4-[4-(1H-pyrazol-1-yl)benzoyl]piperazin-1-yl}thieno[2,3-d]pyrimidin-2-yl)thio]acetate]: the pIC50 is 6.72 and the negative-log Ki (pKi) is 6.89. Further, under setting [1], the inhibition at 10 µM was determined as 95.8%.
As to `CCc1cc2c(N3CCN(C(=O)c4cc(F)ccc4F)CC3)nc(SCC(=O)OC)nc2s1` [Example 53, Methyl ({4-[4-(2,5-difluorobenzoyl)piperazin-1-yl]-6-ethylthieno[2,3-d]pyrimidin-2-yl}thio)acetate], the negative logarithm of the IC50 (pIC50) was 5.63 and the pKi is 5.81. Also, the inhibition at 10 µM under setting [1] is 68.8%.
Take `CCc1cc2c(N3CCN(C(=O)c4cccc(-c5ccccc5)c4)CC3)nc(SCC(=O)OC)nc2s1` [Example 78, Methyl ({4-[4-(1,1′-biphenyl-3-ylcarbonyl)piperazin-1-yl]-6-ethylthieno[2,3-d]pyrimidin-2-yl}thio)acetate]: the pIC50 is 7.46 and 7.70 and 7.16; the pKi is 7.70 and 8.00 and 7.40. Further, the inhibition at 1 µM (at highest concentration tested, 1 μM) came out at 94%. Further, under setting [1], the “% Inhibition” value worked out at 87.73% and the inhibition at 10 µM was determined as 92.6%.
`CCc1cc2c(N3CCN(C(=O)c4cc(F)cc(F)c4)CC3)nc(SCC(=O)OC)nc2s1` [Example 51, Methyl ({4-[4-(3,5-difluorobenzoyl)piperazin-1-yl]-6-ethylthieno[2,3-d]pyrimidin-2-yl}thio)acetate]: the pIC50 is 5.80 and the pKi is 5.98. The inhibition at 10 µM under setting [1] was determined as 74.2%.
Turning to `C=CCSc1nc(N2CCN(C(=O)Cc3ccccc3)CC2)c2cc(CC)sc2n1` [Example 10, 2-(Allylthio)-6-ethyl-4-[4-(phenylacetyl)piperazin-1-yl]thieno[2,3-d]pyrimidine], the pIC50 was 6.00 and 6.26; the pKi is 6.24 and 6.48. Moreover, under setting [1], the “% Inhibition” value is recorded as 79.53% and the inhibition at 10 µM was determined as 82.3%.
On to `C#CCCC(=O)N1CCN(c2nc(SCC(=O)OC)nc3sc(CC)cc23)CC1` [Example 37, Methyl {[6-ethyl-4-(4-pent-4-ynoylpiperazin-1-yl)thieno[2,3-d]pyrimidin-2-yl]thio}acetate], for which the pIC50 is 5.90 and the pKi is 6.08. For the same compound, the inhibition at 10 µM under setting [1] is 78.3%.
Regarding `CCc1cc2c(N3CCN(C(=O)CCOC)CC3)nc(SCC(=O)OC)nc2s1` [Example 58, Methyl ({6-ethyl-4-[4-(3-methoxypropanoyl)piperazin-1-yl]thieno[2,3-d]pyrimidin-2-yl}thio)acetate], the pIC50 was 5.28 and the pKi was 5.58. In addition, under setting [1], the inhibition at 10 µM worked out at 53.6%.
For the compound `CCc1cc2c(N3CCN(C(=O)c4cc(N(C)C)nc(N(C)C)n4)CC3)nc(SCC(=O)OC)nc2s1` [Example 72, Methyl {[4-(4-{[2,6-bis(dimethylamino)pyrimidin-4-yl]carbonyl}piperazin-1-yl)-6-ethylthieno[2,3-d]pyrimidin-2-yl]thio}acetate], the negative-log IC50 (pIC50) is 6.17 and the negative-log Ki (pKi) was 6.37. The inhibition at 10 µM under setting [1] is 88.7%.
For `CCCCOc1ccc(C(=O)N2CCN(c3nc(SCC(=O)OC)nc4sc(CC)cc34)CC2)cc1` [Example 73, Methyl ({4-[4-(4-butoxybenzoyl)piperazin-1-yl]-6-ethylthieno[2,3-d]pyrimidin-2-yl}thio)acetate], in that order: 6.43, 6.64 and 82%.
For `CCc1cc2c(N3CCN(C(=O)c4ccccc4)CC3)nc(SCC(=O)OC)nc2s1` [Example 56, Methyl {[4-(4-benzoylpiperazin-1-yl)-6-ethylthieno[2,3-d]pyrimidin-2-yl]thio}acetate], in that order: 5.52, 5.82 and 64.1%.
